Measurements: patent US9802902B2, “Antifungal compound” (priority 2012, dated 2017)

Tests used:
[1] = tested on: C. albicans biofilms supported on contact lenses; assay: Biofilm susceptibility (in vitro keratitis model treatment); assay type: cell-based, Candida albicans
Description: The contact lenses were washed with PBS and immersed in YM broth overnight before they were punched into smaller pieces of 2 mm in diameter. To grow C. albicans biofilms, the lenses were placed in 6-well tissue culture plates with 4 mL of yeast suspension (10^7 CFU/mL) and incubated for 3 hours at 22° C. The contact lenses were gently washed with PBS to remove non-adherent yeast cells and immersed in YM broth for 48 hours at 22° C. with shaking at 100 rpm. Biofilms were quantified using direct plate counting. The yeast cells on contact lens were detached and dispersed in PBS by ultrasonication for 3 minutes. After making 10-fold dilutions, 20-μL sampling aliquots were plated on solid Lysogeny broth (LB) plate and incubated at 22° C. for 48 hours before the colony number was counted for determination of surviving CFU. Data from triplicate plate counts were averaged.
The C. albicans biofilms supported on contact lenses were transferred to fungicidal agent-containing PBS, and incubated at 22° C. for 24 hours. The biofilms were ultrasonicated for 3 minutes, and then serially diluted in PBS. The viable yeast cells were enumerated as described above.

C. albicans keratitis = assay: Contact lens-associated C. albicans keratitis model in mouse; assay type: in vivo; settings: 1000 μg/mL topical eye drops; for corneal counts of C. albicans: 6 eyeballs homogenized; for clinical score (slit lamp, grade 0-4): after treatment, ± standard deviation
Text: 8-week-old adult C57BL/6 mice (18-22 g) were used for animal studies. All mice eyes were examined for absence of ocular pathology before experiments were initiated. The experimental protocol was approved by the Institutional Animal Care and Use Committee of Biological Resource Centre, Agency for Science, Technology and Research (A*STAR), Singapore.
The black mouse keratitis model was established by employing contact lens biofilm infection, which is described as follows. The mice were anesthetized by ketamine (150 mg/kg) and xylazine ([…]) via intraperitoneal injection (I.P.). Additional topical anesthetic in the form of 0.5% tetracaine hydrochloride eye drops (Bausch & Lomb, Tampa, Fla.) was also administered.
A total of 45 mice were used in this study. A 1-mm filter paper disc moistened with 99% 1-heptanol (Sigma-Aldrich, Lausanne, Switzerland) was placed on the center of the cornea for 40 seconds. The corneal epithelium was traumatically wiped out and the eyes were rinsed with PBS to remove any remaining traces of 1-heptanol. A 2 mm-diameter punch from the contact lense with C. albicans biofilm was then placed on the denuded cornea surface. The contact lenses were kept inside the eyes by closing the eye lids with silk sutures. The C. albicans cells were grown on the eyeball 18 hours after inoculation; eye ulcer with a leathery, tough, raised surface was observed. A disease grading from 0 (no disease) to 4 (severe disease) was established for evaluating treatment efficacy (see Table 1 below). The mice were immune suppressed by subcutaneous injection of cyclophosphamide (Sigma-Aldrich, […]).
To investigate the potential application of these two compounds in fungi keratitis treatment, C. albicans keratitis model was established using mouse. The contact lenses with C. albicans biofilm were kept inside the mice eyes by closing the lids with silk sutures. 18 hours after inoculation, the C. albicans cells were grown on the eyeball. Eye ulcer with a leathery, tough, raised surface was observed. The animals were randomly treated with 5 topical eye drop solutions: saline solution (control), 1000 μg/mL of PIM-45, 1000 μg/mL of IBN-1, 1000 μg/mL of amphotericin B, and 1000 μg/mL of fluconazole. Eye drops (20 μl each) were administered to the mice every 5 minutes during the first hour and every 30 minutes during the next 7 hours. After a pause of 16 hours, eye drops were administered at hourly intervals for another 8 hours. All mice were sacrificed 16 hours after the administration of the last eye drop. The treated eyeballs were collected immediately; three eyeballs from each group were collected for histology, and the remaining 6 eyeballs were homogenized for quantitative fungal recovery study. The fixed eyeballs were embedded in paraffin, sectioned and stained with Grocott's methenamine silver by standard protocol.

C[C@@H]1[C@H](O)[C@@H](C)/C=C/C=C/C=C/C=C/C=C/C=C/C=C/[C@H](O[C@@H]2O[C@H](C)[C@@H](O)[C@H](N)[C@@H]2O)C[C@@H]2O[C@](O)(C[C@@H](O)C[C@@H](O)[C@H](O)CC[C@@H](O)C[C@@H](O)CC(=O)O[C@H]1C)C[C@H](O)[C@H]2C(=O)O [amphotericin B]
effective concentration in killing biofilm-grown yeast cells ([1]; C. albicans biofilm on contact lens, PBS, 22° C., 24 hours): 250 ppm
hyphal invasion into cornea (histology) (C. albicans keratitis): reduced the maximal depth of hyphal invasion into cornea
corneal counts of C. albicans (C. albicans keratitis): 3.3 lg CFU/eye
clinical score (slit lamp, grade 0-4) (C. albicans keratitis): 2.2±0.4

OC(Cn1cncn1)(Cn1cncn1)c1ccc(F)cc1F [fluconazole]
destruction of C. albicans biofilm ([1]; at 250 ppm): only slightly destroyed
hyphal invasion into cornea (histology) (C. albicans keratitis): fungal hyphae extended through the epithelium and into the anterior stroma
corneal counts of C. albicans (C. albicans keratitis): 5.1 lg CFU/eye
clinical score (slit lamp, grade 0-4) (C. albicans keratitis): 3.5±0.5
